The values that follow come from patent US20060173062A1, “Use of selective cyclooxygenase-2 inhibitors for the treatment of endometriosis” (priority 2003, published 2006).

The structures appear in SMILES notation.

The assay deals with rat uterine horn implants in the peritoneal cavity. Kind of assay: Rat model for endometriosis. In kind it is in vivo. Particulars: 14 days; for implant volume: FIG. 1; for implant weight: FIG. 2. The source says:
FIG. 1 compares the mean volume of rat uterine horn implants in the peritoneal cavity of rats before and after 14 days of administration of a cyclooxygenase-2-selective inhibitor.
FIG. 2 compares the in mean weight of rat uterine horn implants in the peritoneal cavity of rats before and after 14 days of administration of a cyclooxygenase-2-selective inhibitor.
Rat Model for Endometriosis:
In this model 5×5 mm sections of rat uterine hom are implanted in the peritoneal cavity (extra uterine endometrial wall) of subject rats. Four weeks after transplantation of the endometrial tissues, rats were anesthetized with Telazol (20 mg/kg, IP, Fort Dodge Animal Health, Fort Dodge, Iowa), Oxymorphone (0.2 mg/kg SC, Henry Schein, Melville, N.Y.) and immobilized on a standard rat operating board. The surgical site was shaved and cleaned using three cycles of Betadine/alcohol or DuraPrep® (3M, St. Paul, Minn.). Using aseptic technique, an incision was made through the skin, SC and muscle layers. The growth of the explant was evaluated for size and acceptance/rejection. On gross examination, the endometrial implants appeared as uni-loculated (occasional as multilobulated) cystic masses filled with clear/light yellowish or dark brown serous fluid. In some instances, at the time of 2nd laparotomy, partial or complete adhesions from connective tissue, mesentry, and bowel to the implants were noted. In those instances, a careful separation was executed, avoiding the rupture the implants. While having a clear vision of the implants, the length, width and height of the implant was measured using a sterile Jameson Caliper (BRI, Rockville, Md.), and documented. The abdominal incisions were closed by using 4-0 chromic gut (Ethicon). The rats were observed until fully ambulatory.
More animals than required for the study were used for surgery. After the 2nd laparotomy, animals were assigned to control or treated groups in an attempt to equalize the endometrium implant size between groups. The rats bearing implant with clear/light yellowish fluid were used in study group selection. The rats bearing implant with dark brown fluid considered as hemorrhagic solid mass were excluded from the study.
Treatment with selected drug therapy started after 1 day of post-surgical recovery. Rats were given the test compound, the cyclooxygenase-2 selective inhibitor Compound A, or vehicle alone or Raloxifene (10 mpk) or Lupron Depot (1 mpk) for a period of 14 days. At the end of the 14-day treatment period, the animals were euthanized at pro-estrus cycle which was confirmed by vaginal smear. Necropsy involved opening the abdomen and evaluating the implant size. The implant and right uterine horn were excised for wet weighing.
Compound A has the following structure: [drawing 1] […]

In the case of `CS(=O)(=O)c1ccc(C2COC(=O)C2c2ccc(F)c(F)c2)cc1` (stereo not shown) [Compound A], the implant volume entry (1 mpk, BID by oral gavage) is “not significant at the 95 percent confidence level”; the implant volume result (10 mpk, BD by oral gavage) is “reduce implant volume and weight to a significant degree at the 95 percent confidence level”. The implant weight entry is “not significant at the 95 percent confidence level” (1 mpk, BID by oral gavage); “reduce implant volume and weight to a significant degree at the 95 percent confidence level” (10 mpk, BD by oral gavage).
